From patent US7138361B2, “Herbicidal heterocycles” (E. I. du Pont de Nemours and Company, priority 2000, dated 2006)

Experiments:
Assay in all cases: Test C preemergence
Type in all cases: in vivo
[1] = test system: goosegrass (Eleusine indica); details: for Plant response rating (0 to 100), Goosegrass: visual evaluation after 12 to 14 days
How it was run: (§1)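 Compounds in non-phytotoxic solvent with surfactant applied preemergence to planted seeds and postemergence to plants at 1- to 4-leaf stage (2–18 cm). Kept in greenhouse 12–14 days, then visually rated against controls on a 0 (no effect) to 100 (complete control) scale.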

[2] = test system: crabgrass (Digitaria sanguinalis); details: for Plant response rating (0 to 100), Crabgrass: visual evaluation after 12 to 14 days
How it was run: as §1

[3] = test system: morningglory (Ipomoea hederacea); details: for Plant response rating (0 to 100), Morningglory: visual evaluation after 12 to 14 days
How it was run: as §1

[4] = test system: yellow nutsedge (Cyperus esculentus); details: for Plant response rating (0 to 100), Nutsedge: visual evaluation after 12 to 14 days
How it was run: as §1

[5] = Preemergence, Rate 500 g/ha, scale 0 to 100
[6] = Rate 62 g/ha, scale 0 to 100, 0 no effect, 100 complete control
[7] = preemergence, Rate 125 g/ha, scale 0 to 100, 0 no effect, 100 complete control
[8] = preemergence, Rate 250 g/ha, scale 0 to 100, 0 no effect, 100 complete control
[9] = Rate 125 g/ha, scale 0 to 100, 0 no effect, 100 complete control

Structure (SMILES)	Plant response rating, Goosegrass [1, 6]	Plant response rating (0 to 100), Goosegrass ([1]; preemergence, Rate 250 g/ha)	Plant response rating, Goosegrass [1, 7]	Plant response rating, Crabgrass [2, 6]	Plant response rating (0 to 100), Crabgrass ([2]; preemergence, Rate 250 g/ha)	Plant response rating, Crabgrass [2, 7]	Plant response rating, Morningglory [3, 6]	Plant response rating (0 to 100), Morningglory ([3]; preemergence, Rate 250 g/ha)	Plant response rating, Morningglory [3, 7]	Plant response rating, Nutsedge [4, 6]	Plant response rating (0 to 100), Nutsedge ([4]; preemergence, Rate 250 g/ha)	Plant response rating, Nutsedge [4, 7]	Plant response rating (0 to 100), Goosegrass ([1]; preemergence, Rate 500 g/ha)	Plant response rating (0 to 100), Crabgrass ([2]; preemergence, Rate 500 g/ha)	Plant response rating (0 to 100), Morningglory ([3]; preemergence, Rate 500 g/ha)	Plant response rating, Morningglory [3, 8]	Plant response rating (0 to 100), Nutsedge ([4]; preemergence, Rate 500 g/ha)	Plant response rating, Nutsedge [4, 8]	Plant response rating, Goosegrass [1, 9]	Plant response rating, Crabgrass [2, 9]	further results
O=C1C(n2ccc(C3CCC3)n2)OCN1c1cccc(C(F)(F)F)c1 (centres unmarked) [Compound 39]	80	100	90	90	100	100	0	0	0	0	0	0									Plant response rating, Goosegrass [1, 5]: 100; Plant response rating, Crabgrass [2, 5]: 100; Plant response rating, Morningglory [3, 5]: 0; Plant response rating, Nutsedge [4, 5]: 40
COc1cc(OC)cc(N2CCC(n3ccc(C(C)(C)C)n3)C2=O)c1 (centres unmarked) [Compound 71]	30	100	90	40	100	100	0		0	0		30	100	100	0	0	70	70			
CC1(c2ccn(C3OCN(c4cccc(C(F)(F)F)c4)C3=O)n2)CC1 (centres unmarked) [Compound 62]	80	100	90	0	100	90	0	0	0	0	20	0	100	100	0		70				
Cc1ccc(N2CCC(n3ccc(C(C)(C)C)n3)C2=O)cc1OC(F)F (centres unmarked) [Compound 79]	80	100		100	100		0			0			100	100	70	30	0	0	90	100	Plant response rating, Morningglory [3, 9]: 0; Plant response rating, Nutsedge [4, 9]: 0
CCC(C)c1ccn(C2CCN(c3cccc(OC(C)C)c3)C2=O)n1 (centres unmarked) [Compound 83]	100	100		100	100		0			0			100	100	0	0	0	0	100	100	Plant response rating, Morningglory [3, 9]: 0; Plant response rating, Nutsedge [4, 9]: 0
